The subject of data set [1] is human NSCLC cell lines A549, H23, H226, H358, H460, and H522. As to the kind of experiment: MTS cell viability assay across the NSCLC panel, single agents and constant-ratio combination. In kind it is cell-based. The settings on record: single agent, 1 pM to 10 μM, 3 days; carboplatin judged at 10,000 nM. As for the experimental part:
(§1) The human NSCLC (non-small cell lung cancer) cell lines A549, H23, H226, H358, H460, and H522 were seeded in 96 well plates (5000 cells/well); after overnight incubation, the cells were treated with epothilone D or carboplatin alone or epothilone D and carboplatin in combination. Once the IC50 value of each drug was obtained, the combined drug treatment was designed at constant ratios of the two drugs and the treatment schedule varied: either epothilone D or carboplatin was administered first with the second drug added 24 hours later. Cell viability was assayed by the MTS assay. […] Cells were treated with epothilone D or carboplatin at varying concentrations, ranging from 1 pM to 10 μM, for 3 days. Cell viability was determined using the using the MTS assay (Promega). IC50 is defined as the concentration of drug required to inhibit cell growth by 50%.

Data set [2] concerns human lung cancer xenograft MV522. In words: Human lung cancer xenograft in nude mice. In kind it is in vivo. To be noted: ip, epothilone D twice a day for 7 days (6 to 14 mg/kg/day), carboplatin daily for 5 days (10 to 40 mg/kg/day), dose dependent. How it is done: (§2) The drug combination was also tested in nude mice bearing the human lung cancer xenografts MV522 and SK-MES. Fragments of human tumor carcinomas harvested from subcutaneously growing tumors in nude mice hosts were implanted subcutaneously. When tumors were approximately 60-75 mg in size (10-14 days after implantation), mice were pair matched into treatment and control groups. Epothilone D was given intraperito-neally twice a day for 7 days (6 to 14 mg/kg/day), carboplatin intraperitoneally every daily for 5 days (10 to 40 mg/kg/day), various combinations of epothilone D (first) and carboplatin (second), or vehicle control.

Data set [3] relates to human lung cancer xenograft SK-MES. In words: Human lung cancer xenograft in nude mice. To be noted: ip, epothilone D twice a day for 7 days (6 to 14 mg/kg/day), carboplatin daily for 5 days (10 to 40 mg/kg/day), dose dependent. In kind it is in vivo. How it is done:
as §2

A further data set concerns A549. As to the kind of experiment: MTS cell viability assay, single agents. The settings on record: Homo sapiens, A549, 72 h, read-out: IC50 (concentration of drug required to inhibit cell growth by 50%). In kind it is cell-based. How it is done:
as §1

In another data set the test system is H226. In words: MTS cell viability assay, single agents. In kind it is cell-based. To be noted: Homo sapiens, NCI-H226, 72 h, read-out: IC50 (concentration of drug required to inhibit cell growth by 50%). How it is done: as §1
The test system of another data set is H23. In words: MTS cell viability assay, single agents. In kind it is cell-based. To be noted: Homo sapiens, NCI-H23, 72 h, read-out: IC50 (concentration of drug required to inhibit cell growth by 50%). How it is done: as §1
The next data set concerns H358. As to the kind of experiment: MTS cell viability assay, single agents. In kind it is cell-based. To be noted: Homo sapiens, NCI-H358, 72 h, read-out: IC50 (concentration of drug required to inhibit cell growth by 50%). As for the experimental part:
as §1

A further data set has as its system H460. As to the kind of experiment: MTS cell viability assay, single agents. In kind it is cell-based. To be noted: Homo sapiens, NCI-H460, 72 h, read-out: IC50 (concentration of drug required to inhibit cell growth by 50%). As for the experimental part:
as §1

The next data set deals with H522. In words: MTS cell viability assay, single agents. In kind it is cell-based. The settings on record: Homo sapiens, NCI-H522, 72 h, read-out: IC50 (concentration of drug required to inhibit cell growth by 50%). How it is done:
as §1

Consider `[NH2][Pt]1([NH2])[O]C(=O)C2(CCC2)C(=O)[O]1` [Carboplatin, carboplatin], for which the “cytotoxic effects against cultured NSCLC human cancer cell lines” value in data set [1] was “essentially inactive”. For the same molecule, the “antiproliferative activity (measured as tumor size), single agent” value in data set [2] and in data set [3] was “antiproliferative activity” throughout.
Turning to `C/C1=C/CC(/C(C)=C/c2csc(C)n2)OC(=O)C[C@H](O)C(C)(C)C(=O)[C@H](C)[C@@H](O)[C@@H](C)CCC1` (stereo partly drawn) [Epothilone D, epothilone D], the IC50 turned out to be 40 nM with A549; 50 nM in the data set on H226; 37 nM with H23; 40 nM in the data set on H358; 33 nM with H460; 40 nM in the data set with H522. For the same molecule, the “cytotoxic effects against cultured NSCLC human cancer cell lines” value in data set [1] was “potent cytotoxic effects”. In addition, the “antiproliferative activity (measured as tumor size), single agent” value in data set [2] and in data set [3] was “antiproliferative activity” in each case.

(Values after US20050215604A1, “Combination therapies with epothilones and carboplatin” (Kosan Biosciences, Inc., priority 2004, published 2005).)
